Reference: patent US9994548B2, “Phenyl-substituted nicotinic ligands, and methods of use thereof” (Georgetown University, priority 2011, dated 2018)
pIC50, pKi: −log10 of the molar value.

Each molecule was assayed against T1, human α4β2 nAChRs (Homo sapiens, UniProt P17787+P43681) (assay: 86Rb+ efflux assay in stably transfected cells). Conditions: 10 min pre-treatment before 100 μM (−)-nicotine; read-out: IC50(10′) α4β2 (desensitization potency).
T1 construct: expressed in transfected cells
Type: cell-based
Protocol: (§1) The cell line expressing rat α3β4 nAChRs, KXα3β4R2, was established previously by stably transfecting HEK 293 cells with combinations of rat nAChR α3 and β4 subunit genes. The cell line expressing human α4β2 nAChRs, YXα4β2H1, were established recently (Tuan et al., 2012, manuscript in preparation). These cell lines were maintained in minimum essential medium (MEM) supplemented with 10% fetal bovine serum, 100 units/mL penicillin G, […] streptomycin and selective antibiotics at 37° C. with 5% CO2 in a humidified incubator. Tissue culture medium and antibiotics were obtained from Invitrogen Corporation (Carlsbad, Calif.), unless otherwise stated. Fetal bovine serum and horse serum were provided by Gemini Bio-Products (Woodland, Calif.).
(§2) Functional properties of compounds at nAChRs expressed in the transfected cells were measured using ^86Rb^+ efflux assays as described previously. In brief, cells were plated into 24-well plates coated with poly-D-lysine. The plated cells were grown at 37° C. for 18 to 24 hour to reach 85-95% confluence. The cells were then incubated in growth medium (0.5 mL/well) containing ^86Rb^+ (2 μCi/mL) for 4 hour at 37° C. The loading mixture was then aspirated, and the cells were washed four times with 1 mL buffer (15 mM HEPES, 140 mM NaCl, 2 mM KCl, 1 mM MgSO4, 1.8 mM CaCl2, 11 mM Glucose, pH 7.4). One mL of buffer with or without compounds to be tested was then added to each well. After incubation for 2 min, the assay buffer was collected for measurements of ^86Rb^+ released from the cells. Cells were then lysed by adding 1 mL of 100 mM NaOH to each well, and the lysate was collected for determination of the amount of ^86Rb^+ that was in the cells at the end of the efflux assay. Radioactivity of assay samples and lysates was measured by liquid scintillation counting. Total loading (cpm) was calculated as the sum of the assay sample and the lysate of each well. The amount of ^86Rb^+ efflux was expressed as a percentage of ^86Rb^+ loaded. […] For obtaining EC50 and Emax values, stimulation curves were constructed in which 8 different concentrations of a ligand were included in the assay. […] EC50, Emax and IC50(10′) values were determined by nonlinear least-squares regression analyses (GraphPad, San Diego, Calif.).
(§3) Functional properties of the new ligands were determined by ^86Rb^1 efflux assays in cells expressing α3β4 and α4β2 nAChR subtypes. Functional activity of each new ligand was measured in terms of its agonism, antagonism and desensitization ability.
(§4) Agonist activity of each of the ligands was tested at eight concentrations. […] The full concentration-effect curves generated potency (EC50) and efficacy (Emax) of each ligand.
(§5) Though the ^86Rb^+ efflux assays were the main methodology used to determine functional properties, whole-cell current measurements were also used to verify the key experiments.
`CN1CC[C@H]1COc1cncc(C#Cc2ccccc2)c1` [VMY-2-205, (S)-3-((1-methylazetidin-2-yl)methoxy)-5-(phenylethynyl)pyridine] showed a pIC50 of 6.43.

What follows are molecules tested against T2, rat α3β4 nAChRs (Rattus norvegicus, UniProt P04757+P12392) (assay: 86Rb+ efflux assay in stably transfected cells). Conditions: 10 min pre-treatment before 100 μM (−)-nicotine; read-out: IC50(10′) α3β4 (desensitization potency).
T2 construct: expressed in transfected cells; host or cells: HEK 293 (KXα3β4R2)
Type: cell-based
Protocol: as §1, §2, §3, §4, §5
Molecule `CN1CC[C@H]1COc1cncc(C#Cc2ccccc2)c1` [VMY-2-205, (S)-3-((1-methylazetidin-2-yl)methoxy)-5-(phenylethynyl)pyridine] has a pIC50 of 4.66.

What follows are molecules tested against T3, α4β2 nAChR (Rattus norvegicus, UniProt P09483+P12390) (assay: [3H]-epibatidine radioligand competition binding assay). Conditions: not given.
T3 construct: expressed in transfected cells
Protocol: (§6) Stably transfected cell lines, tissue culture conditions, membrane preparation procedures and binding assays were described previously. Briefly, cultured cells at >80% confluence were removed from their flasks (80 cm^2) with a disposable cell scraper and placed in 10 mL of 50 mM Tris.HCl buffer (pH 7.4, 4° C.). The cell suspension was centrifuged at 10,000×g for 5 min and the pellet was collected. The cell pellet was then homogenized in 10 mL buffer with a polytron homogenizer and centrifuged at 36,000 g for 10 min at 4° C. The membrane pellet was resuspended in fresh buffer, and aliquots of the membrane preparation were used for binding assays. The concentration of [^3H]-epibatidine used was ˜500 pM for competition binding assays. […] Bound and free ligands were separated by vacuum filtration through Whatman GF/C filters treated with 0.5% polyethylenimine. The filter-retained radioactivity was measured by liquid scintillation counting. Specific binding was defined as the difference between total binding and nonspecific binding. Data from competition binding assays were analyzed using Prism 5 (GraphPad Software, San Diego, Calif.).
(§7) The in vitro binding affinities of the new ligands were measured for defined receptor subtypes (α2β2, α2β4, α3β2, α3β4, α4β2, α4β4, α6β2, α6β4, and α7) expressed in stably transfected cell lines. [^3H]Epibatidine ([^3H]EB) binds to the agonist recognition site of all of the defined receptor subtypes with high affinities. Rat forebrain homogenates were included to allow comparison between the heterologous and native α4β2 and α7 nAChRs. See FIG. 18 for binding affinity values (Ki) of the ligands at the three major nAChR subtypes (α3β4, […], and α7).
(§8) The binding affinities of all compounds synthesized for the receptor subtypes were examined in binding competition studies against [^3H]-epibatidine.
With `Fc1cc(F)cc(C#Cc2cncc(OC[C@@H]3CCN3)c2)c1` [VMY-2-113, (S)-3-(azetidin-2-ylmethoxy)-5-((3,5-difluorophenyl)ethynyl)pyridine] the pKi was 10.30. In the case of `FC(F)(F)c1cccc(C#Cc2cncc(OC[C@@H]3CCN3)c2)c1` [VMY-2-117, (S)-3-(azetidin-2-ylmethoxy)-5-((3-(trifluoromethyl)phenyl)ethynyl)pyridine], the pKi was 9.59. `Cc1cccc(C#Cc2cncc(OC[C@@H]3CCN3)c2)c1` [VMY-2-123, (S)-3-(azetidin-2-ylmethoxy)-5-(m-tolylethynyl)pyridine] gave a pKi of 10.34. With `Clc1cccc(C#Cc2cncc(OC[C@@H]3CCN3)c2)c1` [VMY-2-127, (S)-3-(azetidin-2-ylmethoxy)-5-((3-chlorophenyl)ethynyl)pyridine] the pKi was 10.03. With `CN(C)c1cc(F)cc(C#Cc2cncc(OC[C@@H]3CCN3)c2)c1` [VMY-2-131, (S)-3-((5-(azetidin-2-ylmethoxy)pyridin-3-yl)ethynyl)-5-fluoro-N,N-dimethylaniline] the pKi was 10.51. `Cc1cc(F)cc(C#Cc2cncc(OC[C@@H]3CCN3)c2)c1` [VMY-2-135, (S)-3-(azetidin-2-ylmethoxy)-5-((3-fluoro-5-methylphenyl)ethynyl)pyridine] showed a pKi of 10.37. `COc1cc(F)cc(C#Cc2cncc(OC[C@@H]3CCN3)c2)c1` [VMY-2-139, (S)-3-(azetidin-2-ylmethoxy)-5-((3-fluoro-5-methoxyphenyl)ethynyl)pyridine] showed a pKi of 10.12. `CN1CC[C@H]1COc1cncc(C#Cc2ccccc2)c1` [VMY-2-205, (S)-3-((1-methylazetidin-2-yl)methoxy)-5-(phenylethynyl)pyridine] showed a pKi of 8.92.

Same assay, conditions: Ki α3β4 / Ki α4β2
In the case of `FC(F)(F)c1cccc(C#Cc2cncc(OC[C@@H]3CCN3)c2)c1` [VMY-2-117, (S)-3-(azetidin-2-ylmethoxy)-5-((3-(trifluoromethyl)phenyl)ethynyl)pyridine], the “selectivity for α4β2 receptors over α3β4 receptors (Ki ratio)” value was 5,400 times. `Cc1cccc(C#Cc2cncc(OC[C@@H]3CCN3)c2)c1` [VMY-2-123, (S)-3-(azetidin-2-ylmethoxy)-5-(m-tolylethynyl)pyridine] was tested, and the “selectivity for α4β2 receptors over α3β4 receptors (Ki ratio)” value was 87,000 times.

Same assay, conditions: competition against [3H]-epibatidine, stably transfected cell membranes; read-out: Ki α4β2
Molecule `C(#Cc1cncc(OC[C@H]2CCN2)c1)c1ccccc1` [VMY-2-191, (R)-3-(azetidin-2-ylmethoxy)-5-(phenylethynyl)pyridine] has a pKi of 9.96.

Same assay, conditions: α4β2 binding affinity relative to (S)-N-H VMY-2-95
In the case of `CN1CC[C@H]1COc1cncc(C#Cc2ccccc2)c1` [VMY-2-205, (S)-3-((1-methylazetidin-2-yl)methoxy)-5-(phenylethynyl)pyridine], the “binding weaker than VMY-2-95 (fold)” value was roughly 25 times.

The molecules below were run against T4, α3β4 nAChR (Rattus norvegicus, UniProt P04757+P12392) in the same assay as above. Conditions: not given.
T4 construct: expressed in transfected cells; host or cells: HEK 293 (KXα3β4R2)
Protocol: as §6, §7, §8
For `Fc1cc(F)cc(C#Cc2cncc(OC[C@@H]3CCN3)c2)c1` [VMY-2-113, (S)-3-(azetidin-2-ylmethoxy)-5-((3,5-difluorophenyl)ethynyl)pyridine], the pKi was 5.85.

Same assay, conditions: competition against [3H]-epibatidine, stably transfected cell membranes; read-out: Ki α3β4
For `FC(F)(F)c1cccc(C#Cc2cncc(OC[C@@H]3CCN3)c2)c1` [VMY-2-117, (S)-3-(azetidin-2-ylmethoxy)-5-((3-(trifluoromethyl)phenyl)ethynyl)pyridine], the pKi was 5.85. In the case of `Cc1cccc(C#Cc2cncc(OC[C@@H]3CCN3)c2)c1` [VMY-2-123, (S)-3-(azetidin-2-ylmethoxy)-5-(m-tolylethynyl)pyridine], the pKi was 5.40. `Clc1cccc(C#Cc2cncc(OC[C@@H]3CCN3)c2)c1` [VMY-2-127, (S)-3-(azetidin-2-ylmethoxy)-5-((3-chlorophenyl)ethynyl)pyridine] gave a pKi of 5.47. Work on `CN(C)c1cc(F)cc(C#Cc2cncc(OC[C@@H]3CCN3)c2)c1` [VMY-2-131, (S)-3-((5-(azetidin-2-ylmethoxy)pyridin-3-yl)ethynyl)-5-fluoro-N,N-dimethylaniline] yielded a pKi of 6.00. With `Cc1cc(F)cc(C#Cc2cncc(OC[C@@H]3CCN3)c2)c1` [VMY-2-135, (S)-3-(azetidin-2-ylmethoxy)-5-((3-fluoro-5-methylphenyl)ethynyl)pyridine] the pKi was 5.96. In the case of `COc1cc(F)cc(C#Cc2cncc(OC[C@@H]3CCN3)c2)c1` [VMY-2-139, (S)-3-(azetidin-2-ylmethoxy)-5-((3-fluoro-5-methoxyphenyl)ethynyl)pyridine], the pKi was 5.89. With `C(#Cc1cncc(OC[C@H]2CCN2)c1)c1ccccc1` [VMY-2-191, (R)-3-(azetidin-2-ylmethoxy)-5-(phenylethynyl)pyridine] the pKi was 5.77. Work on `CN1CC[C@H]1COc1cncc(C#Cc2ccccc2)c1` [VMY-2-205, (S)-3-((1-methylazetidin-2-yl)methoxy)-5-(phenylethynyl)pyridine] yielded a pKi of 4.40.

What follows are molecules tested against T5, α7 nAChR (Rattus norvegicus, UniProt Q05941) in the same assay as above. Conditions: competition against [3H]-epibatidine.
T5 construct: expressed in transfected cells
Protocol: as §6, §7, §8
`Fc1cc(F)cc(C#Cc2cncc(OC[C@@H]3CCN3)c2)c1` [VMY-2-113, (S)-3-(azetidin-2-ylmethoxy)-5-((3,5-difluorophenyl)ethynyl)pyridine] showed a pKi of 5.74. `FC(F)(F)c1cccc(C#Cc2cncc(OC[C@@H]3CCN3)c2)c1` [VMY-2-117, (S)-3-(azetidin-2-ylmethoxy)-5-((3-(trifluoromethyl)phenyl)ethynyl)pyridine] showed a pKi of 5.89. Work on `Cc1cccc(C#Cc2cncc(OC[C@@H]3CCN3)c2)c1` [VMY-2-123, (S)-3-(azetidin-2-ylmethoxy)-5-(m-tolylethynyl)pyridine] yielded a pKi of 6.70. `Clc1cccc(C#Cc2cncc(OC[C@@H]3CCN3)c2)c1` [VMY-2-127, (S)-3-(azetidin-2-ylmethoxy)-5-((3-chlorophenyl)ethynyl)pyridine] was tested, and the pKi was 6.32. `CN(C)c1cc(F)cc(C#Cc2cncc(OC[C@@H]3CCN3)c2)c1` [VMY-2-131, (S)-3-((5-(azetidin-2-ylmethoxy)pyridin-3-yl)ethynyl)-5-fluoro-N,N-dimethylaniline] showed a pKi of 6.60. `Cc1cc(F)cc(C#Cc2cncc(OC[C@@H]3CCN3)c2)c1` [VMY-2-135, (S)-3-(azetidin-2-ylmethoxy)-5-((3-fluoro-5-methylphenyl)ethynyl)pyridine] was tested, and the pKi was 6.23. With `COc1cc(F)cc(C#Cc2cncc(OC[C@@H]3CCN3)c2)c1` [VMY-2-139, (S)-3-(azetidin-2-ylmethoxy)-5-((3-fluoro-5-methoxyphenyl)ethynyl)pyridine] the pKi was 5.82. In the case of `C(#Cc1cncc(OC[C@H]2CCN2)c1)c1ccccc1` [VMY-2-191, (R)-3-(azetidin-2-ylmethoxy)-5-(phenylethynyl)pyridine], the pKi was 5.80. `CN1CC[C@H]1COc1cncc(C#Cc2ccccc2)c1` [VMY-2-205, (S)-3-((1-methylazetidin-2-yl)methoxy)-5-(phenylethynyl)pyridine] was tested, and the pKi was 5.11.
